Data reported in patent EP2338473A1, “Pharmaceutical dosage forms of tizanidine and administration routes thereof” (MDM S.p.A., priority 2009, dated 2011).
Structures can show the parent of a compound that is named as a salt.

Tests used:
[1] = Preliminary pharmacokinetics of tizanidine solutions in rabbits (IN, IM, PO); assay type: in vivo; settings: 3.00 mg/kg of tizanidine hydrochloride
Protocol: Preliminary pharmacokinetic data in rabbits at the dose of 3.00 mg/kg of tizanidine hydrochloride by intranasal (IN), intramuscular (IM), and oral route (PO) were performed to test the intranasal absorption without any enhancer.

[2] = animal data, local administration; cited from earlier work
[3] = cited from earlier work
[4] = pH of the tizanidine hydrochloride solutions; assay type: physicochemical; settings: Tizanidine.HCl aqueous solutions, no excipients
[5] = Local tolerability of intranasal aqueous solution; assay type: in vivo; settings: 45.00 mg/mL, pH 4.8
Protocol: The proposed formulations are calculated for a single puff of 50 µL/nostril.

Row | SMILES | bioavailability ([1]; intranasal (IN) compared with intramuscular (IM)) | intranasal absorption ([1]; intranasal (IN), without any enhancer) | activity compared with clonidine [2] | absorption by oral route ([3]; extensive first-pass effect) | T1/2z ([3]; oral route) [h] | Tmax ([3]; oral route) [h] | pH [4] | tolerability by the nasal mucosa (redness or pain) [5]
1 | Clc1ccc2nsnc2c1NC1=NCCN1 [Tizanidine, 5-chloro-N-(4,5-dihydro-1H-imidazol-2-yl)-2,1,3-benzothia-diazol-4-amine] | close to that of intramuscular route (IM) | rapidly absorbed | equivalent activity | well and rapidly absorbed | 1 to 2 | 1 to 2 |  | 
2 | Clc1ccc2nsnc2c1NC1=NCCN1 [Tizanidine.HCl] |  |  |  |  |  |  | 4.8 | tolerated by the nasal mucosa without any local side effect
